The record followed here is patent US20050158805A1, “Toxicity test” (priority 2002, published 2005).

One data set deals with liver spheroids. The data set is described as follows: Spheroid cell spreading inhibition test (SCSIT) using fresh liver spheroids. Particulars: for SCSIT result (spheroid cell spreading inhibition): fresh liver spheroids, batches A-C; for concentrations at which liver spheroid cell spreading is inhibited: liver spheroids, read from tables. It is filed as cell-based, male Wistar rats. How it is done: (§1) The inventors have developed a cell spreading inhibition test based on the observed spheroid cell growth, or “spreading” of cells in spheroids when the spheroids are grown on a suitable surface and at static state i.e. without shaking. […] This inhibition of cell spreading provides an indicator of toxicity.
(§2) According to a first aspect of the invention, there is provided an in vitro toxicity assay comprising: • a) exposing a spheroid sample to a selected concentration of a compound to be assayed; • b) incubating the spheroid sample for a suitable period of time; and • c) observing if spheroid cell spreading inhibition takes place. […] However, if there is observable cell spreading from one or more of the spheroids in the sample, this is a cell spreading inhibition negative (−) result.
(§3) In the following examples, fresh liver or HepG2 spheroids were used.
Liver spheroids were prepared from the liver of male Wistar rats by a two-step collagenase perfusion method described by Seglen P.O. ((1976). Preparation of isolated rat liver cells. Methods Cell. Biol. 13, 29-38) and modified by Lazar, A.; Peshwa, M. V., Wu, F. J., Chi, C. M., Cerra, F. B., and Hu, W. S. (1995). Extended liver-specific functions of procine hepatocyte spheroids entrapped in collagen gel. In Vitro Cell Biol Anim. 31, 340-346). Viability of the isolated liver cells was determined by tyrpan blue dye exclusion i.e. an aliquot of isolated liver cells was mixed with an equal volume of trypan blue dye (1.0% w/v in isotonic saline) and incubated at room temperature for a minimum period of 5 minutes. Only isolated liver cell preparations with viability above 80% were used to prepare liver spheroids. The cell suspension was diluted with culture medium (hepatocyte medium supplemented with 5% FCS, […] L-glutamine, 2 ng/ml insulin, 100 U/ml penicillin and 100 μg/ml streptomycin sulfate) to give a cell density of 5×10^5 cells/ml. The diluted cell suspension was dispersed into 6-well plates, 3 ml/well. The plates were incubated at 37° C., in a 5% CO2 incubator on a gyrotatory shaker (New Brunswick) at an initial rotation speed of 85 rpm for the first 24 hr and 77 rpm thereafter. The plates were rotated at this speed for the duration of the study (up to 45 days, but typically 2-10 days). 1.5 ml of old medium was replaced with 2.0 ml fresh medium for each well every other day. Media exchange was carried out over the duration of the study (up to 45 days, but typically 2-10 days).
(§4) 3 to 5 freshly prepared spheroids were transferred into each well of a 24 well plate and exposed to galactosamine at various concentrations as detailed in Tables 1 and 2. Two wells were used for each concentration of galactosamine. The spheroids were incubated in Hepatocyte medium (Sigma) supplemented with 10-15% FCS, […] L-glutamine, 100 U/ml penicillin and 100 μg/ml streptomycim sulfate, and placed in a 5% CO2 incubator at 37° C. and the effects on spheroid cell spreading inhibition observed after 48 hours exposure of the cells to galactosamine: […]

For a further data set, the system named is HepG2 spheroids. The data set is described as follows: Spheroid cell spreading inhibition test (SCSIT) using fresh HepG2 spheroids. It is filed as cell-based, Human. The following applies: for SCSIT result (spheroid cell spreading inhibition): fresh HepG2 spheroids, batches A-C; for concentrations at which HepG2 spheroid cell spreading is inhibited: HepG2 spheroids, read from tables. How it is done:
as §1, §2, §3
HepG2 cell line (Human Hepatocyte Carinomal cells, from ECACC) was cultured as a monolayer in a 75 cm^2 flask at an initial density of 10^2 cells/cm^2 in a culture medium containing MEM (Sigma) supplemented with 10% FBS, 200 nM L-Glutamine, 100 U/ml pencillin and 100 μg/ml streptomycin (GibcoBril). HepG2 cells of confluent flasks were detached by trypsin and pooled together to be counted by trypan blue dye excretion. The cell suspension was diluted with culture medium (MEM supplemented with 5% FBS, […] L-glutamine, 100 U/ml penicillin and 100 μg/ml streptomycin) to give 1×10^6 cell/ml cell suspension. The cell suspension was plated into 6-well plates, 3 ml/well. The plate was placed on a gyrotatory shaker (New Brunswick) at 83 rpm in a 37° C. CO2 incubator for the first 24 h, and then the rotation speed reduced to 77 rpm. After 6 DIV culture, spheroids were ready for use.
as §4

`O=C(O)Cc1ccccc1Nc1c(Cl)cccc1Cl` [diclofenac]: the “SCSIT result (spheroid cell spreading inhibition)” value with liver spheroids (0.1 μM) was “−”; with liver spheroids (1 μM), “−”; in the data set with liver spheroids (10 μM), “−”; in the data set on liver spheroids (100 μM) it was “−”; in the data set on liver spheroids (1000 μM) it was “+”; with HepG2 spheroids (0.1 μM) it was “−”. Moreover, the “SCSIT result (spheroid cell spreading inhibition)” value in the data set on HepG2 spheroids (1 μM) is listed as “−”; in the data set on HepG2 spheroids (10 μM), “−”; in the data set on HepG2 spheroids (100 μM), “−”; with HepG2 spheroids (1000 μM) it was “+”. Moreover, the “spheroid cell spreading inhibition (FIG. 4A)” value in the data set on liver spheroids (liver spheroid, 100 μM, 48 hours after exposure) was “no spheroid cell spreading inhibition is observed”. Also, in the data set with liver spheroids (liver spheroid, 1000 μM, 48 hours after exposure), the “spheroid cell spreading inhibition (FIG. 4B)” value was “spheroid cell spreading was inhibited”. Besides, the “concentrations at which liver spheroid cell spreading is inhibited” value in the data set with liver spheroids is ≥ 1000 µM. Further, the “concentrations at which HepG2 spheroid cell spreading is inhibited” value in the data set with HepG2 spheroids was ≥ 1000 µM.

In the case of `N[C@H]1C(O)O[C@H](CO)[C@H](O)[C@@H]1O` (stereo partly drawn) [galactosamine], the “SCSIT result (spheroid cell spreading inhibition)” value in the data set with liver spheroids (4 mM, 48 hours exposure) was “−”; in the data set with liver spheroids (10 mM, 48 hours exposure), “−”; with liver spheroids (16 mM, 48 hours exposure) it was “−”; in the data set on liver spheroids (20 mM, 48 hours exposure), “+”; with liver spheroids (40 mM, 48 hours exposure) it was “+”; in the data set on HepG2 spheroids (4 mM, 48 hours exposure), “−”. The “SCSIT result (spheroid cell spreading inhibition)” value was “−” in the data set with HepG2 spheroids (10 mM, 48 hours exposure); “+” in the data set with HepG2 spheroids (16 mM, 48 hours exposure); “+” with HepG2 spheroids (20 mM, 48 hours exposure); “+” with HepG2 spheroids (40 mM, 48 hours exposure). In addition, the “spheroid cell spreading inhibition (FIG. 2B)” value with liver spheroids (liver spheroid, 16 mM, 48 hours after exposure) was “no spheroid cell spreading inhibition is observed”. In addition, the “spheroid cell spreading inhibition (FIG. 2C)” value in the data set with liver spheroids (liver spheroid, 40 mM, 48 hours after exposure) is reported as “spheroid cell spreading was inhibited”. Further, the “concentrations at which liver spheroid cell spreading is inhibited” value with liver spheroids was ≥ 20000 µM. Besides, the “concentrations at which HepG2 spheroid cell spreading is inhibited” value in the data set with HepG2 spheroids is ≥ 16000 µM.

With `CC(=O)Nc1ccc(O)cc1` [paracetamol], the “SCSIT result (spheroid cell spreading inhibition)” value was “−” in the data set on liver spheroids (5 μM); “−” in the data set on liver spheroids (50 μM); “−” in the data set on liver spheroids (500 μM); “−” with liver spheroids (5 mM); “+” in the data set on liver spheroids (50 mM); “−” with HepG2 spheroids (5 μM). In addition, the “SCSIT result (spheroid cell spreading inhibition)” value with HepG2 spheroids (50 μM) is given as “−”; in the data set on HepG2 spheroids (500 μM), “−”; in the data set with HepG2 spheroids (5 mM), “−”; with HepG2 spheroids (50 mM) it was “+”. For the same compound, in the data set with liver spheroids (liver spheroid, 5 mM, 48 hours after exposure), the “spheroid cell spreading inhibition (FIG. 5A)” value is on record as “no spheroid cell spreading inhibition is observed”. Further, the “spheroid cell spreading inhibition (FIG. 5B)” value with liver spheroids (liver spheroid, 50 mM, 48 hours after exposure) is “spheroid cell spreading was inhibited”. Also, the “concentrations at which liver spheroid cell spreading is inhibited” value in the data set on liver spheroids was ≥ 50000 µM. The “concentrations at which HepG2 spheroid cell spreading is inhibited” value with HepG2 spheroids is ≥ 50000 µM.
